The values that follow are results of earlier work, collected in patent US9950967B2, “Titanium-containing formulation and method of preparation of titanium-containing formulation” (INTERMAG Sp. z.o.o., priority 2013, dated 2018).

In the series the test system is plants. The note with it: I. Pais, J. Plant Nutr. 6:3-133, 1983.

In the case of titanium, the increases the yield is on record as 10-20%.
